Experimental data published in PubChem BioAssay AID1845196 (Molecular Pharmacology Branch, DTP, NCI, 2023).
pIC50: −log10 of the molar value.

Test system: 292921-168-R tumor spheroid viability
Experiment: Anticancer human tumor 292921-168-R patient-derived pancreatic carcinoma cell line growth inhibition
Conditions: spheroids with HUVEC and MSC; for pIC50: curve of first compound; for viability, T/C: stronger effect = lower value
Procedure, shortened: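 Complex tumor spheroids combined malignant cells with endothelial cells and mesenchymal stem cells. DNA-damaging drugs and DNA repair inhibitors were tested alone and in combination, at half-log dilutions down from clinical Cmax (top 10 microM if Cmax unknown), 0.25% DMSO final.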

[1] = second compound 30 pM, first compound 0.0316 µM
[2] = second compound 30 pM, first compound 0.1 µM
[3] = second compound 30 pM, first compound 0.316 µM
[4] = second compound 30 pM, first compound 1 µM
[5] = second compound 30 pM, first compound 3.16 µM
[6] = second compound 30 pM, first compound 10 µM
[7] = second compound 94.9 pM, first compound 0.0316 µM
[8] = second compound 94.9 pM, first compound 0.1 µM
[9] = second compound 94.9 pM, first compound 0.316 µM
[10] = second compound 94.9 pM, first compound 1 µM
[11] = second compound 94.9 pM, first compound 3.16 µM
[12] = second compound 94.9 pM, first compound 10 µM
[13] = second compound 0.0003 µM, first compound 0.0316 µM
[14] = second compound 0.0003 µM, first compound 0.1 µM
[15] = second compound 0.0003 µM, first compound 0.316 µM
[16] = second compound 0.0003 µM, first compound 1 µM
[17] = second compound 0.0003 µM, first compound 3.16 µM
[18] = second compound 0.0003 µM, first compound 10 µM
[19] = second compound 0.000949 µM, first compound 0.0316 µM
[20] = second compound 0.000949 µM, first compound 0.1 µM
[21] = second compound 0.000949 µM, first compound 0.316 µM
[22] = second compound 0.000949 µM, first compound 1 µM
[23] = second compound 0.000949 µM, first compound 3.16 µM
[24] = second compound 0.000949 µM, first compound 10 µM
[25] = second compound 0.003 µM, first compound 0.0316 µM
[26] = second compound 0.003 µM, first compound 0.1 µM
[27] = second compound 0.003 µM, first compound 0.316 µM
[28] = second compound 0.003 µM, first compound 1 µM
[29] = second compound 0.003 µM, first compound 3.16 µM
[30] = second compound 0.003 µM, first compound 10 µM
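Further: spheroids exposed to compounds for 7 days.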

| SMILES | pIC50 (second compound 30 pM) | pIC50 (second compound 94.9 pM) | pIC50 (second compound 0.0003 µM) | pIC50 (second compound 0.000949 µM) | pIC50 (second compound 0.003 µM) | viability, T/C [1] [%] | viability, T/C [2] [%] | viability, T/C [3] [%] | viability, T/C [4] [%] | viability, T/C [5] [%] | viability, T/C [6] [%] | viability, T/C [7] [%] | viability, T/C [8] [%] | viability, T/C [9] [%] | viability, T/C [10] [%] | viability, T/C [11] [%] | viability, T/C [12] [%] | viability, T/C [13] [%] | viability, T/C [14] [%] | viability, T/C [15] [%] | other results |
| --- | --- | --- | --- | --- | --- | --- | --- | --- | --- | --- | --- | --- | --- | --- | --- | --- | --- | --- | --- | --- | --- |
| CC(C)n1c(=O)n(C)c2cnc3cc(F)c(-c4ccc(OCCCN5CCCCC5)nc4)cc3c21 + COc1cc2c(cc1O)CCNC21CSC2c3c(OC(C)=O)c(C)c4c(c3C(COC1=O)N1C(O)C3Cc5cc(C)c(OC)c(O)c5C(C21)N3C)OCO4 | 5.45 | > 7.50 | > 7.50 | > 7.50 | > 7.50 | 52.2 | 64.9 | 60 | 64 | 49.6 | 28.1 | 39.2 | 36 | 39 | 35.8 | 38.6 | 23.9 | 20.9 | 21.3 | 20.8 | viability, T/C [16]: 24.8%; viability, T/C [17]: 29.4%; viability, T/C [18]: 19.5%; viability, T/C [19]: 2.03%; viability, T/C [20]: 2.57%; viability, T/C [21]: 2.94%; viability, T/C [22]: 4.97%; viability, T/C [23]: 7.02%; viability, T/C [24]: 5.36%; viability, T/C [25]: 0.16%; viability, T/C [26]: 0.18%; viability, T/C [27]: 0.2%; viability, T/C [28]: 0.15%; viability, T/C [29]: 0.13%; viability, T/C [30]: 0.22% |
| CC1COCCN1c1cc(-c2ccnn2C)c2ccnc(-c3ccn[nH]3)c2n1 (stereo not given) + COc1cc2c(cc1O)CCNC21CSC2c3c(OC(C)=O)c(C)c4c(c3C(COC1=O)N1C(O)C3Cc5cc(C)c(OC)c(O)c5C(C21)N3C)OCO4 | > 7.50 | > 7.50 | > 7.50 | > 7.50 | > 7.50 | 17.2 | 10.9 | 10.4 | 13 | 14.3 | 16.4 | 10.2 | 7.28 | 8.41 | 11.8 | 13.9 | 16.9 | 4.54 | 4.77 | 5.09 | viability, T/C [16]: 8.72%; viability, T/C [17]: 10.4%; viability, T/C [18]: 12.7%; viability, T/C [19]: 1.76%; viability, T/C [20]: 1.36%; viability, T/C [21]: 2.19%; viability, T/C [22]: 2.16%; viability, T/C [23]: 1.68%; viability, T/C [24]: 2.07%; viability, T/C [25]: 0.19%; viability, T/C [26]: 0.16%; viability, T/C [27]: 0.17%; viability, T/C [28]: 0.16%; viability, T/C [29]: 0.16%; viability, T/C [30]: 0.37% |
| COc1cc(C)[nH]c(=O)c1CN1CCc2c(Cl)cc(C(OC)C3COC3)c(Cl)c2C1=O (stereo not given) + COc1cc2c(cc1O)CCNC21CSC2c3c(OC(C)=O)c(C)c4c(c3C(COC1=O)N1C(O)C3Cc5cc(C)c(OC)c(O)c5C(C21)N3C)OCO4 | < 5.00 | < 5.00 | 5.43 | > 7.50 | > 7.50 | 117 | 116 | 110 | 114 | 110 | 92.4 | 117 | 101 | 117 | 112 | 94.8 | 97.3 | 49.4 | 53.3 | 54.1 | viability, T/C [16]: 58.3%; viability, T/C [17]: 51.2%; viability, T/C [18]: 36.5%; viability, T/C [19]: 6.67%; viability, T/C [20]: 3.7%; viability, T/C [21]: 4.01%; viability, T/C [22]: 3.27%; viability, T/C [23]: 2.1%; viability, T/C [24]: 1.64%; viability, T/C [25]: 0.15%; viability, T/C [26]: 0.14%; viability, T/C [27]: 0.13%; viability, T/C [28]: 0.14%; viability, T/C [29]: 0.2%; viability, T/C [30]: 0.26% |
